Source: patent publication US11345701B1, “KRAS mutant protein inhibitors” (Jacobio Pharmaceuticals Co., Ltd., priority 2021, dated 2022)
pIC50: −log10 of the molar value. Where two headings read alike, the source gives them in different places.

What was measured:
HIS-KRAS(G12C) = HIS-KRAS(G12C) (Homo sapiens (Human), UniProt P01116, G12C); test: SOS1 catalyzed nucleotide exchange assay (TR-FRET); format: biochemical; details: GDP-loaded HIS-KRAS(G12C), 1 hour pre-incubation, TR-FRET
Protocol: TR-FRET signals were then read on Tecan Spark multimode microplate reader. […] TR-FRET ratios for each individual wells were calculated by equation: TR-FRET ratio=(Signal F515/Signal F486)*10000. Then the data were analyzed using a 4-parameter logistic model to calculate IC50 values.

[1] = system: NCI-H358 cells expressing KRAS G12C mutant protein; test: Phospho-ERK1/2(THR202/TYR204) HTRF assay; format: cell-based; details: 2 hours incubation, read-out: p-ERK IC50
Protocol: The NCI-H358 cells in culture medium were seeded in 96-well plates at a concentration of 40,000 cells/well and then put in a 37° C./5% CO2 cell incubator to incubate overnight. […] After 2 hours incubation in a 37° C./5% CO2 cell incubator, the assay medium in 96-well plates was removed, then 50 μL of 1× blocking reagent-supplemented lysis buffer (Cisbio) was added and the plates were incubated at 25° C. for 45 min with shaking. 10 μL of cell lysates from the 96-well plates were transferred to a 384-well plate (Greiner) containing 2.5 μL/well HTRF® pre-mixed antibodies (Cisbio 64AERPEH). Incubate 4 hours at 25° C. and then read HTRF signals on Tecan Spark multimode microplate reader. The data were analyzed using a 4-parameter logistic model to calculate IC50 values.

[2] = Mouse pharmacokinetic study; format: in vivo, Balb/c mouse; details: plasma, Balb/c mouse (female)
Protocol: The purpose of this study was to evaluate the pharmacokinetic properties of compounds in Balb/c mouse (♀) following single dose administration. The day before administration, mice were fasted overnight and free access to water. Six mice were needed for each compound and the six mice were divided into two groups (n=3/group), group A and group B. Mice in group A were treated with a single 3 mg/kg dose of compound (iv). Mice in group B were treated with a single 10 mg/kg dose of compound (po). For each mouse in group A, blood samples were collected at pre-dose, and at the time point of 0.083, 0.25, 0.5, 1, 2, 4, 6, 8 and 24 h post-dose. For each mouse in group B, blood samples were collected at pre-dose, and at the time point of 0.25, 0.5, 1, 2, 3, 4, 6, 8 and 24 h post-dose. Blood samples were placed on ice until centrifugation to obtain plasma samples. The plasma samples were stored at −80° C. until analysis. The concentration of compound in plasma samples was determined using a LC-MS/MS method.

[3] = Dog pharmacokinetic study; format: in vivo, beagle dog; details: plasma, beagle dog; for clearance / Vd: 1 mg/kg, iv; for Vd: read-out: VSS; for AUC(0-t) / Cmax / bioavailability: 3 mg/kg, po; for AUC(0-t): read-out: AUC0-24h; for Cmax: read-out: Cmax; for bioavailability: read-out: Oral BA (F %)
Protocol: (§1) The purpose of this study was to evaluate the pharmacokinetic properties of compounds in beagle dog following single dose administration. The day before administration, dogs were fasted overnight and free access to water. Four beagle dogs were needed for each compound and the four dogs were divided into two groups, group A and group B (one male(♂) and one female (♀) in each group). Dogs in group A were treated with a single 1 mg/kg dose of compound (iv). Dogs in group B were treated with a single 3 mg/kg dose of compound (po). For dogs in group A, blood samples were collected at pre-dose, and at the time point of 0.083, 0.25, 0.5, 1, 2, 4, 6, 8 and 24 h post-dose. For dogs in group B, blood samples were collected at pre-dose, and at the time point of 0.25, 0.5, 1, 2, 4, 6, 8 and 24 h post-dose. Blood samples were placed on ice until centrifugation to obtain plasma samples. The plasma samples were stored at −80° C. until analysis. The concentration of compound in plasma samples was determined using a LC-MS/MS method.

[4] = Cynomolgus monkey pharmacokinetic study; format: in vivo; details: plasma, cynomolgus monkey; for clearance / Vd: 1 mg/kg, iv; for Vd: read-out: VSS; for AUC(0-t) / Cmax / bioavailability: 3 mg/kg, po; for AUC(0-t): read-out: AUC0-24h; for Cmax: read-out: Cmax; for bioavailability: read-out: Oral BA (F %)
Protocol: as §1, with “cynomolgus monkey” for “beagle dog”, “monkeys” for “dogs”, “monkeys are” for “beagle dogs were”, “male (♂)” for “male(♂)”, “Monkeys” for “Dogs”

Sequence of HIS-KRAS(G12C) (P01116 other isoform, or with tags, fused parts or gaps G12C): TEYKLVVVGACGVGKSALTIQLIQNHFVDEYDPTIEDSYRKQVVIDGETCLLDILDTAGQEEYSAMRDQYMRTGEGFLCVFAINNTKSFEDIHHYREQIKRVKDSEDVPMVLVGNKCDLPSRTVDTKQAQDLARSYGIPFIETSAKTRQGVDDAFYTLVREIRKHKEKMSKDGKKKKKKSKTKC

C=CC(=O)N1[C@H](C)CN(c2nc(=O)n(-c3c(C)ccnc3C(C)C)c3nc(-c4c(N)c(F)c(F)c(F)c4F)c(F)cc23)C[C@@H]1C [Compound 5, 4-((3S,5R)-4-acryloyl-3,5-dimethylpiperazin-1-yl)-7-(2-amino-3,4,5,6-tetrafluorophenyl)-6-fluoro-1-(2-isopropyl-4-methylpyridin-3-yl)pyrido[2,3-d]pyrimidin-2(1H)-one]
pIC50 (HIS-KRAS(G12C)): 8.27 | pIC50 ([1]; Homo sapiens, NCI-H358, 2 h): 7.31

C=CC(=O)N1[C@H](C)CN(c2nc(=O)n(-c3c(C)ccnc3C(C)C)c3nc(-c4c(N)c(F)c(F)c(F)c4F)c(F)cc23)C[C@@H]1C (single isomer, unassigned) [Compound 5-1]
pIC50 (HIS-KRAS(G12C)): 8.48 | pIC50 [1]: 7.75

C=CC(=O)N1CCN(c2nc(=O)n(-c3c(C)ccnc3C(C)C)c3nc(-c4c(F)c(F)c(F)c(N)c4Cl)c(F)cc23)[C@@H](C)C1 (single isomer, unassigned) [Compound 1-2]
pIC50 (HIS-KRAS(G12C)): 6.92

C=CC(=O)N1CCN(c2nc(=O)n(-c3c(C)ccnc3C(C)C)c3nc(-c4c(F)c(F)c(F)c(N)c4Cl)c(F)cc23)[C@@H](C)C1 [Compound 1, 4-((S)-4-acryloyl-2-methylpiperazin-1-yl)-7-(3-amino-2-chloro-4,5,6-trifluorophenyl)-6-fluoro-1-(2-isopropyl-4-methylpyridin-3-yl)pyrido[2,3-d]pyrimidin-2(1H)-one]
pIC50 (HIS-KRAS(G12C)): 8.14 | pIC50 ([1]; Homo sapiens, NCI-H358, 2 h): 7.15

C=CC(=O)N1CCN(c2nc(=O)n(-c3c(C)ccnc3C(C)C)c3nc(-c4c(N)c(F)c(F)c(F)c4F)c(F)cc23)CC1 (single isomer, unassigned) [Compound 3-2, 4-(4-acryloylpiperazin-1-yl)-7-(2-amino-3,4,5,6-tetrafluorophenyl)-6-fluoro-1-(2-isopropyl-4-methylpyridin-3-yl)pyrido[2,3-d]pyrimidin-2(1H)-one]
pIC50 (HIS-KRAS(G12C)): 6.63

C=CC(=O)N1[C@H](C)CN(c2nc(=O)n(-c3c(C)ccnc3C(C)C)c3nc(-c4c(F)c(F)c(F)c(N)c4Cl)c(F)cc23)C[C@@H]1C (single isomer, unassigned) [Compound 7-2]
pIC50 (HIS-KRAS(G12C)): 6.51

C=CC(=O)N1CCN(c2nc(=O)n(-c3c(C)ccnc3C(C)C)c3nc(-c4c(N)c(F)c(F)c(F)c4F)c(F)cc23)[C@@H](C)C1 (atropisomer, axis not shown; (P)) [Compound 2-2, (P)-4-((S)-4-acryloyl-2-methylpiperazin-1-yl)-7-(2-amino-3,4,5,6-tetrafluorophenyl)-6-fluoro-1-(2-isopropyl-4-methylpyridin-3-yl)pyrido[2,3-d]pyrimidin-2(1H)-one]
pIC50 (HIS-KRAS(G12C)): 7.21 | pIC50 [1]: 6.17

C=CC(=O)N1CCN(c2nc(=O)n(-c3c(C)ccnc3C(C)C)c3nc(-c4c(F)c(F)c(F)c(N)c4Cl)c(F)cc23)C[C@H]1C [Compound 6, 4-((R)-4-acryloyl-3-methylpiperazin-1-yl)-7-(3-amino-2-chloro-4,5,6-trifluorophenyl)-6-fluoro-1-(2-isopropyl-4-methylpyridin-3-yl)pyrido[2,3-d]pyrimidin-2(1H)-one]
pIC50 (HIS-KRAS(G12C)): 7.40

C=CC(=O)N1CCN(c2nc(=O)n(-c3c(C)ccnc3C(C)C)c3nc(-c4c(F)c(F)c(F)c(N)c4Cl)c(F)cc23)[C@@H](C)C1 (single isomer, unassigned) [Compound 1-1]
pIC50 (HIS-KRAS(G12C)): 8.39 | pIC50 ([1]; Homo sapiens, NCI-H358, 2 h): 7.78

C=CC(=O)N1[C@H](C)CN(c2nc(=O)n(-c3c(C)ccnc3C(C)C)c3nc(-c4c(F)c(F)c(F)c(N)c4Cl)c(F)cc23)C[C@@H]1C [Compound 7, 4-((3S,5R)-4-acryloyl-3,5-dimethylpiperazin-1-yl)-7-(3-amino-2-chloro-4,5,6-trifluorophenyl)-6-fluoro-1-(2-isopropyl-4-methylpyridin-3-yl)pyrido[2,3-d]pyrimidin-2(1H)-one]
pIC50 (HIS-KRAS(G12C)): 7.76

C=CC(=O)N1CCN(c2nc(=O)n(-c3c(C)ccnc3C(C)C)c3nc(-c4c(O)cccc4F)c(F)cc23)[C@@H](C)C1 [Amg-510, reference compound]
clearance ([2]; 3 mg/kg, iv): 40.5 mL/min/kg | Vd ([2]; 3 mg/kg, iv, read-out: Vss): 1.64 L/kg | AUC(0-t) ([2]; 10 mg/kg, po, read-out: AUC0-24 h): 1810 ng·h/mL | Cmax ([2]; 10 mg/kg, po, read-out: Cmax): 1600 ng/mL | bioavailability ([2]; 10 mg/kg, po, read-out: Oral BA (F %)): 43.9% | clearance ([3]; female): 20.1 mL/min/kg | Vd ([3]; female): 0.543 L/kg | AUC(0-t) ([3]; female): 404 ng·h/mL | Cmax ([3]; female): 450 ng/mL | bioavailability ([3]; female): 16.4% | clearance ([3]; male): 21.1 mL/min/kg | Vd ([3]; male): 0.535 L/kg | AUC(0-t) ([3]; male): 1990 ng·h/mL | Cmax ([3]; male): 1840 ng/mL | bioavailability ([3]; male): 84.4% | clearance ([4]; female): 84.3 mL/min/kg | Vd ([4]; female): 2.01 L/kg | AUC(0-t) ([4]; female): 241 ng·h/mL | Cmax ([4]; female): 100 ng/mL | bioavailability ([4]; female): 41.3% | clearance ([4]; male): 25.5 mL/min/kg | Vd ([4]; male): 0.775 L/kg | AUC(0-t) ([4]; male): 214 ng·h/mL | Cmax ([4]; male): 133 ng/mL | bioavailability ([4]; male): 11%

C=CC(=O)N1CCN(c2nc(=O)n(-c3c(C)ccnc3C(C)C)c3nc(-c4c(N)c(F)c(F)c(F)c4F)c(F)cc23)C[C@H]1C (single isomer, unassigned) [Compound 4-1]
pIC50 (HIS-KRAS(G12C)): 8.48 | pIC50 ([1]; Homo sapiens, NCI-H358, 2 h): 7.39

C=CC(=O)N1CCN(c2nc(=O)n(-c3c(C)ccnc3C(C)C)c3nc(-c4c(N)c(F)c(F)c(F)c4F)c(F)cc23)C[C@H]1C [Compound 4, 4-((R)-4-acryloyl-3-methylpiperazin-1-yl)-7-(2-amino-3,4,5,6-tetrafluorophenyl)-6-fluoro-1-(2-isopropyl-4-methylpyridin-3-yl)pyrido[2,3-d]pyrimidin-2(1H)-one]
pIC50 (HIS-KRAS(G12C)): 7.99

C=CC(=O)N1CCN(c2nc(=O)n(-c3c(C)ccnc3C(C)C)c3nc(-c4c(N)c(F)c(F)c(F)c4F)c(F)cc23)CC1 [Compound 3, 4-(4-acryloylpiperazin-1-yl)-7-(2-amino-3,4,5,6-tetrafluorophenyl)-6-fluoro-1-(2-isopropyl-4-methylpyridin-3-yl)pyrido[2,3-d]pyrimidin-2(1H)-one]
pIC50 (HIS-KRAS(G12C)): 8.26

C=CC(=O)N1CCN(c2nc(=O)n(-c3c(C)ccnc3C(C)C)c3nc(-c4c(N)c(F)c(F)c(F)c4F)c(F)cc23)C[C@H]1C (single isomer, unassigned) [Compound 4-2]
pIC50 (HIS-KRAS(G12C)): 6.56
